{
  "source": "patent US20210403864A1",
  "about": "“METHODS AND COMPOSITIONS FOR TREATING ACTIVATED G-ALPHA Q MUTANT CANCERS OR MELANOCYTIC MALIGNANCIES” (Memorial Sloan Kettering Cancer Center, priority 2018, published 2021)",
  "key": {"GNAQ^G48V": {"molecular_target": "T1, GNAQ^G48V (Homo sapiens, UniProt P50148, G48V)", "T1 construct": "host or cells: melan-a (immortalized mouse melanocytes), retroviral transduction with MSCV-Puro", "T1 sequence (P50148 1-359 G48V)": "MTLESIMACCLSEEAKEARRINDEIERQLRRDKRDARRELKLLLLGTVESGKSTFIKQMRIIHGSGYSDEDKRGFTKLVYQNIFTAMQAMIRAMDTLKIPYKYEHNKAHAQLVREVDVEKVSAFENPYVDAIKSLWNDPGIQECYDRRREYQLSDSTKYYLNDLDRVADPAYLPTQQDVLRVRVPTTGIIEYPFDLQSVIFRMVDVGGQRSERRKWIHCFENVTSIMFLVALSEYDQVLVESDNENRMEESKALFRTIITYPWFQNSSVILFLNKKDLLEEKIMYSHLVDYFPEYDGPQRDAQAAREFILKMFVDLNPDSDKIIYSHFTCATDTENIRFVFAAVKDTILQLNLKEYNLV", "test": "IP1 accumulation assay in transiently transfected HEK293T cells", "type": "cell-based", "details": "24-hour treatment", "method": "(§1) Cells were treated with YM at increasing doses for 24 hours. Error bars, s.e.m. from three biological replicates, each with three technical replicates.\n(§2) Exogenous Gene Expression. HEK293T cells were transiently transfected to express vectors containing synthetic CYSLTR2 (Moore A R, et al., Nat Genet. 48(6):675 (2016)) and GNAQ. Genewiz was used to codon optimize these sequences for expression in mammalian cells. The human GNAQ α-subunit plasmids encoding for GNAQ mutants Q209L, R183Q and G48V were generated by Quick Change (Agilent Technologies, Santa Clara, Calif.) site-directed mutagenesis. HEK293T cells were transiently transfected with the plasmids encoding for GNAQ WT and mutants subcloned into pcDNA3.1(+) using Lipofectamine according to the manufacturer's instructions. Briefly, 9,000 HEK293T cells were transfected in low-volume 384-well plates with 11 ng of total DNA/well for 24 hours. Human cDNAs for WT CYSLTR2 and GNAQ were obtained from Origene and cloned into MSCV-Puro (Addgene plasmid #68469) for stable expression in melan-a cells via retroviral transduction with X-tremeGENE 9 (Sigma-Aldrich, St. Louis Mo.). Quikchange primers were used to introduce the various mutant constructs. All constructs were confirmed by sequencing. The primers used in the experiments described herein are provided below: […]\n(§3) IP1 Accumulation Assay. IP1 concentrations in GNAQ-transfected HEK293T cells, GNAQ-expressing melan-a cells and uveal melanoma cells was measured using a competitive homogenous time resolved fluorescence (HTRF) assay (CisBio, Bedford, Mass.). Briefly, 9,000 transiently transfected-HEK293T cells, 5,000 melan-a cells and 5,000 uveal melanoma cells were seeded in low-volume 384-well plates in 7 μL media for 24 hours prior YM-254890 treatment. Cells were then treated with various concentrations of YM-254890 diluted in the appropriate media at 37° C. for 3 hours or 24 hours. […] Following incubation, cells were lysed by adding 3 μL/well of d2-labeled IP1 analogue as the fluorescence acceptor and the Terbium cryptate-labeled anti-IP1 mAb as the fluorescence donor, diluted in the kit-supplied lysis buffer. The plates were incubated overnight at RT and time-resolved fluorescence signals were read using the BioTek Synergy NEO plate reader (BioTek Instruments, Winooski, Vt.) at 620 nm and […]. Results were calculated as a 665 nm/620 nm signal ratio, and IP1 concentrations were interpolated from a standard curve prepared using the supplied IP1 calibrator. […] Dose-response curves and bar graphs were analyzed using GraphPad Prism 7.0 software. […]"}, "GNAQ^Q209L": {"molecular_target": "T2, GNAQ^Q209L (Homo sapiens, UniProt P50148, Q209L)", "T2 construct": "host or cells: melan-a (immortalized mouse melanocytes), retroviral transduction with MSCV-Puro", "T2 sequence (P50148 1-359 Q209L)": "T1 sequence (P50148 1-359 G48V) with V48G, Q209L", "test": "IP1 accumulation assay in transiently transfected HEK293T cells", "type": "cell-based", "details": "24-hour treatment", "method": "as §1, §2, §3"}},
  "note": "Where a chain is given by its changes, count along the chain named.",
  "data": [
    {"substance": "YM-254890", "values": [
      {"measurement": "potency of inhibition of IP1 accumulation", "setting": "GNAQ^G48V", "result": "subnanomolar potency"},
      {"measurement": "inhibition of signaling (IP1 accumulation)", "setting": "GNAQ^Q209L", "result": "incompletely/poorly inhibited"},
      {"measurement": "relative sensitivity to YM (IP1 accumulation)", "setting": "GNAQ^Q209L", "result": "most resistant"}
    ]}
  ]
}
